One block for each molecule: values may come before it.
What was measured:
[1] = biological target: T1, human recombinant ALR2 enzyme (Homo sapiens, UniProt P15121); assay: ALR2 enzyme assay (decrease in NADPH absorbance at 340 nm); format: biochemical; settings: for ALR2 inhibitory activity (in words, compared with quercitrin): 3.75 μg/ml where stated
T1 construct: purchased Wako Chemicals USA Inc
Protocol: Human recombinant ALR2 enzyme was purchased from Wako Chemicals USA Inc. Enzyme activity was measured at each step of purification of the extract, by monitoring the decrease in NADPH absorbance at a wavelength of 340 nm (Nishimura et al., Purification and characterization of recombinant aldose reducatse expressed in baculovirus system. Biochim. Biophys. acta. pp. 1078-1171 (1991)), using a spectrophotometer. One hundred micro liters of the reaction mixture contained 100 mM sodium phosphate buffer (pH 6.2), 0.15 mM NADPH, 10 mM DL-Glyceraldehyde and 1 mU of human recombinant ALR2 enzyme. The samples were prepared in 10% DMSO and the final concentration of the samples or the positive control quercitrin was 3.75 μg/ml. The reaction was initiated by adding the enzyme and the change in NADPH absorbance was monitored over seven minutes.

PTP-1B = biological target: T2, PTP-1B (Homo sapiens, UniProt P18031); assay: PTP-1B activity by PNPP hydrolysis after immunoprecipitation from treated skeletal muscle cells; format: cell-based; settings: 20 μg/ml of media; for PTP-1B inhibitory activity (decrease of PTP-1B activity): primary skeletal muscle culture from subjects with type 2 diabetes, 16 hours
T2 construct: Cell lysate was prepared and PTP-1B was immunoprecipitated with specific antibody; endogenous in cells; host or cells: primary skeletal muscle cell culture (subjects with type 2 diabetes)
T2 sequence (P18031 1-435): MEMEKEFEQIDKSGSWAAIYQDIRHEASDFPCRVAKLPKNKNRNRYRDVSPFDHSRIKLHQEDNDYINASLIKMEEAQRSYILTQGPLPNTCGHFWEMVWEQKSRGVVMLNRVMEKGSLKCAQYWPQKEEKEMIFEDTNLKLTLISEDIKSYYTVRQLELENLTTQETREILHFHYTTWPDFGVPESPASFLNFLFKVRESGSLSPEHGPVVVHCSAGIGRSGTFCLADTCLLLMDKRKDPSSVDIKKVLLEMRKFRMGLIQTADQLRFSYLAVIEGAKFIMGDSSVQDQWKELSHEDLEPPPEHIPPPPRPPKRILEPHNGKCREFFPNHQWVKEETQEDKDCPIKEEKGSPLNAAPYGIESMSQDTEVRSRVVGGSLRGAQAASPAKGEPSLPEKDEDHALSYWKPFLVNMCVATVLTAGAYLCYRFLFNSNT
Protocol: The activity of PTP-1B was assayed by hydrolysis of p-nitrophenol phosphate (PNPP). Skeletal muscle cells were incubated overnight (16 hours) with test substance (extract, fractions or pure compounds) at 20 μg/ml of media. Cell lysate was prepared and PTP-1B was immunoprecipitated with specific antibody (Upstate Biotechnology, Lake Placid, N.Y.). The immunoprecipitate was incubated in Phosphatase Reaction Buffer (20 mmol/L HEPES, pH 7.4, 150 mmol/L NaCl, 5 mM dithiothreitol, 1 mmol/L PNPP) for 20 minutes at 37° C. The reaction was stopped with 0.2 mol/L NaOH, and the absorbance at 410 nm was measured. The reactions were run in triplicate (Moeslein et al., The CLK family kinases, CLK1 and CLK2, phosphorylate and activate the tyrosine phosphatase, PTP-1B. J Biol Chem, 274:26697-26704 (1999)).

PTP-1B mRNA = assay: Quantitative real time PCR for PTP-1B gene expression; format: cell-based; settings: skeletal muscle cells, 20 μg/ml of media
Protocol: Cells were incubated overnight (16 hours) with test substance (extract, fractions or pure compounds) at 20 μg/ml of media and harvested from the culture treatments at the designated time points. After extraction and quantification of RNA, quantitative real time PCR (qPCR) analysis was carried out using Taqman® one-step RT-PCR Master Mix (Applied Biosystems, Branchburg, N.J.). 20 ng of total RNA were added per 50 μl reaction with sequence-specific primers (200 nM) and Taqman® probes (200 nM) as indicated here, PTP-1B probe; 5′FAM d(AGTGATGGAGAAAGGTT)BHQ-1 3′. PTP-1B forward primer; 5′ d([…])3′ and PTP-1B reverse primer; 5′ d([…])3′. Primers and probes were designed by and purchased from Applied Biosystems. qPCR assays were carried out in triplicate on an ABI Prism 7700 sequence detection system. […] The threshold was set above the non-template control background and within the linear phase of target gene amplification to calculate the cycle number at which the transcript was detected (denoted CT). Gene expression values were calculated based on the standard curve of each target gene (RNA of control cells with two-fold serial dilutions from 200 ng to 3.125 ng) and normalized by the reference housekeeping gene β-Actin (1). Results were expressed as percentage change of control (Applied Biosystems (2001) Applied Biosystems User Bulletin Number 2, Foster City, Calif.).

PEPCK gene expression = assay: PEPCK gene inhibition assay (Dex/cAMP-induced, qPCR) in H4IIE hepatoma cells; format: cell-based, rat; settings: 25 μg/ml
Protocol: H4IIE hepatoma cells (ATCC CRL-1600) were plated in 24-well tissue culture plates (Greiner Bio One) and were grown to confluence in Dulbecco's modified Eagle's medium (DMEM) containing 2.5% (v/v) newborn calf serum and 2.5% (v/v) fetal calf serum. Cells were treated for 8 hours with 500 nM dexamethasone and 0.1 mM cAMP (Dex/cAMP, both Sigma) to induce PEPCK gene expression and different concentrations or volumes of each of the tested compounds, plant extract or […] of Insulin. The fractions were tested at 50 μg/ml of media and the compounds were tested at the doses of 2.5 μg/ml, 5 μg/ml and 10 μg/ml and 25 μg/ml. Three wells were allocated for each treatment as well as for a negative control (untreated cells).
Total RNA was extracted from H4IIE rat hepatoma cells using Trizol reagent (Invitrogen Inc.) following the manufacturer instructions. RNA was quantified spectro-photo-metrically by absorption measurements at 260 nm and 280 nm using the NanoDrop system (NanoDrop Technologies Inc. Delware, USA). Quality of RNA was assessed by separation in gel-electrophoresis. […]
The synthesized cDNAs were diluted 4-fold. […] The other components of the PCR reactions were 0.5 μl of 6 μM gene specific primers (synthesized by IDT Inc. USA), 12.5 μl of Brilliant SYBR green PCR master mix (2×) (Stratagene, La Jolla, Calif.) containing green jump-start Taq ready mix. […]

inhibition at 3.75 µg/mL ([1]; 3.75 μg/ml): 58.2%
Compound: COc1ccc(CCC(=O)c2ccc(O)cc2O)cc1 (single isomer, unassigned) [F7-9/P3, 2′,4′-dihydroxy-4-methoxydihydrochalcone]

greater inhibition of ALR2 than that caused by quercitrin ([1]; 3.75 μg/ml): 19%
inhibition at 3.75 µg/mL ([1]; 3.75 μg/ml): 78%
Compound: O=C(/C=C/c1ccc(O)c(O)c1)OC1CC(O)(C(=O)O)CC(O)C1OC(=O)/C=C/c1ccc(O)c(O)c1 (single isomer, unassigned) [Sub-fraction 5-7, 4,5-Di-O-caffeoylquinic acid]

ALR2 inhibitory activity (in words, compared with quercitrin) [1]: highest inhibitory activity
Compound: O=C(/C=C/c1ccc(O)c(O)c1)OC1CC(O)(C(=O)O)CC(O)C1OC(=O)/C=C/c1ccc(O)c(O)c1 (stereo not shown) [Compound 1, 4,5-Di-O-caffeoylquinic acid]

ALR2 inhibitory activity (in words, compared with quercitrin) [1]: shows ALR2 inhibition activity
Compound: O=C(CCc1ccc(O)cc1)c1ccc(O)cc1O [Compound 2, Davidigenin]

PTP-1B inhibitory activity (decrease of PTP-1B activity) (PTP-1B): ≤ 26%
Compound: COc1ccc(CCC(=O)c2ccc(O)cc2O)cc1 [Compound 4, 2′,4′-dihydroxy-4-methoxydihydrochalcone]
reduction of PTP-1B mRNA expression (PTP-1B mRNA): 29%
repression of dexamethazone/cAMP-induced PEPCK gene expression (PEPCK gene expression): more than 50%
repression of dexamethazone/cAMP-induced PEPCK gene expression (PEPCK gene expression; listed as DMDC): more than 50%

PTP-1B inhibitory activity (decrease of PTP-1B activity) (PTP-1B): ≤ 36%
Compound: COc1ccc(C(=O)CCc2ccc(O)cc2)c(O)c1 [Compound 5, 2′,4-dihydroxy-4′-methoxydihydrochalcone]

PTP-1B inhibitory activity (decrease of PTP-1B activity) (PTP-1B): ≤ 50%
PTP-1B inhibitory activity (in words) (PTP-1B; skeletal muscle cells): decrease PTP-1B activity
Compound: COc1cc(O)c2c(c1)O[C@H](c1ccc(O)cc1)CC2=O [Compound 6, Sakuranetin]

Compound: C[C@@H]1O[C@@H](Oc2c(-c3ccc(O)c(O)c3)oc3cc(O)cc(O)c3c2=O)[C@H](O)[C@H](O)[C@H]1O [quercitrin, reference compound]
inhibition at 3.75 µg/mL ([1]; 3.75 μg/ml): 54%
